According to patent publication US20260115336A1, “MOFS WITH BETA-EMITTERS FOR RADIOTHERAPY” (Node Pharma AS, priority 2023, published 2026):

Experiments:
[1] = Retention of Lu177 in the MOF in serum, iTLC; assay type: in vitro ADME; details: fetal bovine serum, after 30 minutes
Procedure: (§1) Radiolabelling was performed by adding 60 kBq of [^177Lu]LuCl3 solution to a 400 μL suspension of UiO-66-(COOH)2 (0.6 mg) in 0.005 mol/L MES buffer (pH 6). A control sample consisting of 60 kBq [^177Lu]LuCl3 in 0.005 mol/L MES buffer was prepared in parallel. The samples were kept at 37° C., under agitation for 24 hours. 35 μL of each sample was dispersed in 400 μL of fetal bovine serum. After 30 minutes, both the radiolabelled-dose and the serum-dose suspensions were subjected to instant thin layer chromatography (iTLC) under the following conditions: 5 μL drops were placed on glass fiber iTLC strips, which were then placed in a TLC chamber with 20 mM sodium citrate (pH 6.5) as mobile phase. Upon completion, the application point and the top of the iTLC strip were measured separately using a Hidex gamma counter.

[2] = Lu177 radiolabelling (adsorption) of the MOF, iTLC; assay type: physicochemical; details: 60 kBq [177Lu]LuCl3, 0.005 mol/L MES buffer pH 6, 37° C., 24 hours
Procedure: as §1

Serum retention (retention of Lu in serum) [1]: 3% | Labelling, RCP (radiochemical purity) [2]: 1%
SMILES: [Cl][Lu]([Cl])[Cl] [LuCl3, [^177Lu]LuCl3]
